Measured values taken from article PMC8078842 (PLoS Neglected Tropical Diseases, 2021).

Key:
[1] = system: GABA A, BDZ, alpha 1 site; test: CNS side effect panel, [^3H]Flunitrazepam; format: binding; conditions: pentamidine 1.0E^-5 M
PRL phosphatases = conditions: Oncology target; cited from earlier work
[2] = system: Corticotropin Releasing Factor, Non-selective; test: CNS side effect panel, [^125I]Tyr0-oCRF; format: binding; conditions: pentamidine 1.0E^-5 M
[3] = system: Norepinephrine Transporter; test: CNS side effect panel, [^3H]Nisoxetine; format: binding; conditions: pentamidine 1.0E^-5 M
Rat NMDA receptor = conditions: Rat brain membrane 3H-dizocilpine binding; cited from earlier work
Adenosine, Non-selective = test: CNS side effect panel, [^3H]NECA; format: binding; conditions: pentamidine 1.0E^-5 M
Dopamine, D1 (h) = biological target: T1, Dopamine, D1 (h) (Homo sapiens, UniProt P21728); test: CNS side effect panel, [^3H]-SCH23390; format: binding; conditions: pentamidine 1.0E^-5 M
T1 construct: purchased Perkin-Elmer Science Discovery Systems (NovaScreen), customised CNS screening panel

[4] = system: fibrinogen binding to GP11b/IIIa; conditions: Inhibits fibrinogen binding to GP11b/IIIa; cited from earlier work
[5] = system: Glutamate, MK-801 Site (Ionotropic); test: CNS side effect panel, [^3H]MK-801; format: binding; conditions: pentamidine 1.0E^-5 M
[6] = human, in vivo; cited from earlier work
GABA-B = test: CNS side effect panel, [^3H]CGP 54626A; format: binding; conditions: pentamidine 1.0E^-5 M
[7] = system: Glycine, Strychnine-sensitive; test: CNS side effect panel, [^3H]Strychnine; format: binding; conditions: pentamidine 1.0E^-5 M
Calmodulin = conditions: Inhibits nNO synthase in vitro; cited from earlier work
[8] = system: Acid sensing ion channels (ASIC); conditions: Potency 1b>3>2a>or = 1a; cited from earlier work
[9] = system: Adrenergic, Alpha 1, Non-selective; test: CNS side effect panel, [^3H]7-MeOxy-Prazosin; format: binding; conditions: pentamidine 1.0E^-5 M
Sodium, Site 2 = test: CNS side effect panel, [^3H]Batrachotoxin A 20-a-Benzo; format: binding; conditions: pentamidine 1.0E^-5 M
Histamine, H2 = Histamine, H2 (Cavia porcellus, UniProt P47747); test: CNS side effect panel, [^125I]-Aminopotentidine; format: binding
[10] = system: NMDA (Ionotropic) glutamate receptor; conditions: Voltage dependent; cited from earlier work
[11] = system: Nicotinic, Neuronal (a-BnTx insensitive); test: CNS side effect panel, [^3H]Epibatidine; format: binding; conditions: pentamidine 1.0E^-5 M

Histamine, H2, sequence (P47747 whole entry): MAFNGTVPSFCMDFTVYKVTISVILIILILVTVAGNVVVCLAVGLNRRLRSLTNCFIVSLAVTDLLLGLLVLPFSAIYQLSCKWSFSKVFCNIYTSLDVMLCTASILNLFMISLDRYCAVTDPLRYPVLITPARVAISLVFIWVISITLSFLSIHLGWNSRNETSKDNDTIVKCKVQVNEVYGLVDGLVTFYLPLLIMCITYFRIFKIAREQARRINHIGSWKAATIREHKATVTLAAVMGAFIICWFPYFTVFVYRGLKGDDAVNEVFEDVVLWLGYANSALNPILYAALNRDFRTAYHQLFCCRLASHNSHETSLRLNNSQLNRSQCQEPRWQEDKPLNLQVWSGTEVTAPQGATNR
T1 sequence (P21728 whole entry): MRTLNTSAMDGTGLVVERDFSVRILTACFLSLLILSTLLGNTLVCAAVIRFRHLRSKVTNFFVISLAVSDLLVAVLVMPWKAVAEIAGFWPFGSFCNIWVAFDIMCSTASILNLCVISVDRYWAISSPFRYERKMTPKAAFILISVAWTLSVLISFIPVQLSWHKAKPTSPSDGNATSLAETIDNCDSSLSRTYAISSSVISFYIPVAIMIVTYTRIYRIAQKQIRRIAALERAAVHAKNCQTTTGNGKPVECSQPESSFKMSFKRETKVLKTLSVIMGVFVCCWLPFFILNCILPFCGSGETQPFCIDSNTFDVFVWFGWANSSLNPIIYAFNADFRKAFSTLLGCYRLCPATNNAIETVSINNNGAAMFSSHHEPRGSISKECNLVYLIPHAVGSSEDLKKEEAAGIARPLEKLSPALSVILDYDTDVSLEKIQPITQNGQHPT

N=C(N)c1ccc(OCCCCCOc2ccc(C(=N)N)cc2)cc1 [Pentamidine, 1,5-bis-4ρ-amidinophenoxypentane]
Percent Inhibition [1]: 20.54%
Affinity (PRL phosphatases): 3 µM
Percent Inhibition [2]: 17.05%
Percent Inhibition [3]: 21.39%
Affinity (Rat NMDA receptor): 1.8 µM
Percent Inhibition (Adenosine, Non-selective): 1.28%
Percent Inhibition (Dopamine, D1 (h)): 27.48%
Affinity [4]: 1.1 µM
Percent Inhibition [5]: 6.25%
incidence of diabetes mellitus [6]: occasional but irreversible
incidence of hypoglycaemia [6]: 5-40%
Percent Inhibition (GABA-B): 10.74%
Percent Inhibition [7]: -0.22%
Affinity (Calmodulin): 30 µM
Affinity [8]: 38 µM
Percent Inhibition [9]: 100.77%
Percent Inhibition (Sodium, Site 2): 46.94%
Ki (Histamine, H2): 7.21 µM
Percent Inhibition (Histamine, H2; pentamidine 1.0E^-5 M): 71.07%
Affinity [10]: 0.2 µM
Percent Inhibition [11]: 10.87%
